Like-named read-outs stand apart in the source and are kept apart here. Marks after values point to notes of the source that are not given here.

Test [1] concerns the target T1, alpha-amylase from porcine pancreas (Sus scrofa, UniProt P00690).
T1 sequence (P00690 16-511): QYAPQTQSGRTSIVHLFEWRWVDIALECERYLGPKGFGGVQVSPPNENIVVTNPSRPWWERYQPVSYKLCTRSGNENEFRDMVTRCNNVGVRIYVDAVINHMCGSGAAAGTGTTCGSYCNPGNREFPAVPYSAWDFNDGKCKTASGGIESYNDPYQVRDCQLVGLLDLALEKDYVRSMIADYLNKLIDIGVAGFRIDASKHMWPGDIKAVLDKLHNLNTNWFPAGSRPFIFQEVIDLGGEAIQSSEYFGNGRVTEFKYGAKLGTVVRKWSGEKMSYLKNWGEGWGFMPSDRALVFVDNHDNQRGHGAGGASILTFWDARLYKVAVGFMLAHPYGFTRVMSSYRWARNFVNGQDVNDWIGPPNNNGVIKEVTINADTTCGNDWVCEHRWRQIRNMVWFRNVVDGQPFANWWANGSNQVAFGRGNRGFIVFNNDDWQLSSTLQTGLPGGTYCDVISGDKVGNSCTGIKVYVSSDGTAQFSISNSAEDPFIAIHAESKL
Briefly: alpha-amylase inhibition assay (DNSA method). The conditions noted are these: for LogIC50: isolated compounds and acarbose, log of IC50 in uM. The format is biochemical. The protocol: Varying concentrations of the pregnane-rich fractions (40–200 μg/ml) and those of the isolated compounds (10–50 μg/ml) were prepared in DMSO. Briefly, 100 μL of the test substance was reacted with 200 μl of alpha-amylase (alpha-amylase from porcine pancreas, EC 3.2.1.1, type VI, Sigma) and 100 μl of […] phosphate buffer (pH 6.9) of 0.02 M sodium phosphate (pH 6.9). Subsequent to incubation for 20 min, 100 μL of 1% starch substrate was added. Blank controls where the enzyme was replaced with the buffer were also prepared alongside. Following incubation of the reaction mixture for 5 min, 500 μl of dinitrosalicylic acid reagent was mixed with the control and the test. These were kept in a water bath at a boiling temperature for 5 min.
The half-maximal inhibitory concentration (IC50) values were determined by fitting inhibition parameters with standard log inhibitor vs. normalized response models using nonlinear regression as described by [Buchwald (2020)].

The subject of the next test is albino rats. The test can be described thus: oral starch tolerance test. The conditions noted are these: for PBG / % reduction of AUC / % reduction of PBG / AUC: 3.0 g/kg starch; for PBG / AUC: mean ± SEM n = 4; for % reduction of AUC / % reduction of PBG: vs control; for blood glucose level: oral, starch-challenged rats; for AUC: blood glucose 0-120 min. The format is in vivo. The protocol: The animal study was reviewed and approved by the University Ethical Review Committee of the University of Ilorin (Protocol Identification Code: UERC/LSC/183). An oral starch tolerance test was carried out as described in a previous study ([Poovitha and […], 2016]). […] After 10 min, the blood glucose level was estimated (0 min), and the rats were orally administered with 3.0 g/kg starch. Then, the blood glucose level was estimated at 30, 60, and 120 min after the administration using a glucometer. Peak blood glucose (PBG) was determined by observing the blood glucose level during the previously mentioned time intervals, and the area under the curve (AUC) was calculated.

As to `C[C@H]1O[C@H](O[C@H]2[C@H](O)[C@@H](O)[C@@H](O[C@H]3[C@H](O)[C@@H](O)C(O)O[C@@H]3CO)O[C@@H]2CO)[C@H](O)[C@@H](O)[C@@H]1N[C@H]1C=C(CO)[C@@H](O)[C@H](O)[C@H]1O` (some centres unmarked) [Acarbose, acarbose, reference compound], the “percentage inhibitory activity on porcine alpha-amylase” value in test [1] (in words, fractions 40–200 μg/ml, compounds 10–50 μg/ml) is on record as “greatest inhibition effects”. In addition, in the test with albino rats (10 mg/kg oral), the PBG was 2.85 ± 0.05^ab mmol/L, the “% reduction of AUC” value was determined as 7.00% and the “% reduction of PBG” value was found to be 20.83%. For the same compound, the blood glucose level result in the test on albino rats (in words) is reported as “significant decrease”.
For orientation: IC50 means the concentration that inhibits the measured activity by half. Consider `CC(O)[C@H]1CC[C@@]2(O)[C@]1(C)[C@H](O)[C@@H](O)[C@@H]1[C@@]3(C)CC[C@H](O)CC3=CC[C@]12O` (some centres unmarked) [P1, marsectohexol], for which the LogIC50 in test [1] came to 1.000. Moreover, the IC50 in test [1] (read-out: IC50) was determined as 10 µM. In the test with albino rats (10 mg/kg oral), the AUC is 883.5 ± 19.50 mmol·min/L, the PBG was 2.90 ± 0.10^ab mmol/L, the “% reduction of AUC” value was determined as 6.36% and the “% reduction of PBG” value was found to be 19.44%. Moreover, in the test with albino rats (20 mg/kg oral), the AUC was 699.0 ± 48.0 mmol·min/L, the PBG is listed as 2.15 ± 0.45^b mmol/L and the “% reduction of AUC” value was 25.91%. Also, in the test with albino rats (20 mg/kg oral, after starch loading, in words), the “peak blood glucose (PBG) and area under the curve (AUC)” value is given as “significantly reduced”. The blood glucose level entry in the test on albino rats (in words) is listed as “significantly reduced”. The blood glucose level result in the test with albino rats (in words, listed as marsectohexol) is listed as “significant decrease”.
In test [1], `CC=C(C)C(=O)OC1C2C3(C)CCC(OC4CC(OC)C(OC5OC(C)C(O)C(OC)C5O)C(C)O4)CC3=CCC2(O)C2(O)CCC(C(C)=O)C2(C)C1OC(=O)C(C)=CC` [P2, 3-O-[6-deoxy-3-O-methyl-β-D-allopyranosyl-(1→14)-β-D-oleandropyranosyl]-11,12-di-O-tigloyl-17β-marsdenin] displayed an IC50 of 12.1 µM and a LogIC50 of 1.083.
In test [1], `COC1CC(OC2CCC3(C)C(=CCC4(O)C3C(O)C(O)C3(C)C(C(C)=O)CCC43O)C2)OC(C)C1OC1OC(C)C(O)C(OC)C1O` [P3, 3-O-[6-deoxy-3-O-methyl-β-D-allopyranosyl-(1→4)-β-D-oleandropyranosyl]-17β-marsdenin] yielded an IC50 of 14 µM and a LogIC50 of 1.147.
In turn, `COC1C(O)C(C)OC(OC2C(O)CC(OC3CCC4(C)C(=CCC5(O)C4C(O)C(O)C4(C)C(C(C)=O)CCC54O)C3)OC2C)C1O` [P4, 3-O-[6-deoxy-3-O-methyl-β-D-allopyranosyl-(1→4)-β-D-canaropyranosyl]-17β-marsdenin] showed a LogIC50 in test [1] of 1.137. Further, the 50% inhibitory concentration (IC50) in test [1] (read-out: IC50) came to 13.7 µM.

The values are drawn from PMC9399641, “Inhibition mechanism of alpha-amylase, a diabetes target, by a steroidal pregnane and pregnane glycosides derived from Gongronema latifolium Benth” (Frontiers in Molecular Biosciences, 2022).
